Data reported in PMC9604066 (International Journal of Molecular Sciences, 2022).
≈ marks a conversion by molar mass, not a printed value.

Tests used:
[1] = system: 17D vaccine strain of YFV; settings: cited from earlier work
[2] = system: YFV strain 17D (Stamaril) on Huh-7 cells; assay: microbe, parasite or virus in culture; format: cell-based, yellow fever virus; settings: for EC50: Yellow fever virus, Huh-7
in vitro = settings: human
yellow fever = settings: rhesus monkey, in vivo; cited from earlier work

In the case of `C[C@@]1(O)[C@H](O)[C@@H](CO)O[C@H]1n1ccc(N)nc1=O` [2-C-methylcytidine], the EC90 [1] is listed as 0.32 µg/mL (≈ 1.24 µM) and the SI [1] is listed as 141.
With `CN1CC(=O)N(c2ccccc2)C1c1cc2cc(Cc3ccc4oc(C5N(C)CC(=O)N5c5ccccc5)cc4c3)ccc2o1` (stereo not drawn) [2a, (2″R,2‴R)-, (2″S,2‴S)-, and meso-(2″R,2‴S)-5,5′-Methylenebis[2-(N-methyl-3″-phenyl-4″-oxo-1″,3″-imidazolidin-2″-yl)benzofuran]] the EC50 [2] was > 133 µM and the logP (physchem) was 4.75.
With `Cc1ccc(N2C(=O)CN(C)C2c2cc3cc(Cc4ccc5oc(C6N(C)CC(=O)N6c6ccc(C)cc6)cc5c4)ccc3o2)cc1` (stereo not drawn) [2b, (2″R,2‴R)-, (2″S,2‴S)-, and meso-(2″R,2‴S)-5,5′-Methylenebis(2-[N-methyl-3″-(4-methylphenyl)-4″-oxo-1″,3″-imidazolidin-2″-yl]benzofuran)] the EC50 [2] was > 160 µM.
For `Cc1cccc(N2C(=O)CN(C)C2c2cc3cc(Cc4ccc5oc(C6N(C)CC(=O)N6c6cccc(C)c6C)cc5c4)ccc3o2)c1C` (stereo not drawn) [2c, (2″R,2‴R)-, (2″S,2‴S)-, and meso-(2″R,2‴S)-5,5′-Methylenebis(2-[N-methyl-3″-(2,3-dimethylphenyl)-4″-oxo-1″,3″-imidazolidin-2″-yl]benzofuran)], the EC50 [2] was 6.75 µM, the CC50 (in vitro) was 41 µM and the logP (physchem) was 3.77.
`Cc1ccc(C)c(N2C(=O)CN(C)C2c2cc3cc(Cc4ccc5oc(C6N(C)CC(=O)N6c6cc(C)ccc6C)cc5c4)ccc3o2)c1` (stereo not drawn) [2d, (2″R,2‴R)-, (2″S,2‴S)-, and meso-(2″R,2‴S)-5,5′-Methylenebis(2-[N-methyl-3″-(2,5-dimethylphenyl)-4″-oxo-1″,3″-imidazolidin-2″-yl]benzofuran)] showed an SI [2] of 2.40, an EC50 [2] of 7.7 µM and a CC50 (in vitro) of 18.5 µM. For the same compound, the logP (physchem) was 4.38.
In the case of `Cc1cc(C)cc(N2C(=O)CN(C)C2c2cc3cc(Cc4ccc5oc(C6N(C)CC(=O)N6c6cc(C)cc(C)c6)cc5c4)ccc3o2)c1` (stereo not drawn) [2e, (2″R,2‴R)-, (2″S,2‴S)-, and meso-(2″R,2‴S)-5,5′-Methylenebis[2-(N-methyl-3″-(3,5-dimethylphenyl)-4″-oxo-1″,3″-imidazolidin-2″-yl)benzofuran]], the EC50 [2] is reported as 3.54 µM, the CC50 (in vitro) is reported as 54.1 µM and the logP (physchem) is reported as 4.15.
For `COc1ccc(N2C(=O)CN(C)C2c2cc3cc(Cc4ccc5oc(C6N(C)CC(=O)N6c6ccc(OC)cc6)cc5c4)ccc3o2)cc1` (stereo not drawn) [2g, (2″R,2‴R)-, (2″S,2‴S)-, and meso-(2″R,2‴S)-5,5′-Methylenebis(2-[N-methyl-3″-(4-methoxyphenyl)-4″-oxo-1″,3″-imidazolidin-2″-yl]benzofuran)], the EC50 [2] was > 152 µM and the logP (physchem) was 4.25.
Work on `CN1CC(=O)N(c2ccc(F)cc2)C1c1cc2cc(Cc3ccc4oc(C5N(C)CC(=O)N5c5ccc(F)cc5)cc4c3)ccc2o1` (stereo not drawn) [2h, (2″R,2‴R)-, (2″S,2‴S)-, and meso-(2″R,2‴S)-5,5′-Methylenebi(2-[N-methyl-3″-(4-fluorophenyl)-4″-oxo-1″,3″-imidazolidin-2″-yl]benzofuran)] yielded an SI [2] of 1.63, an EC50 [2] of 23.5 µM and a CC50 (in vitro) of 38.5 µM. The logP (physchem) was 4.6.
With `CN1CC(=O)N(c2ccc(Cl)cc2)C1c1cc2cc(Cc3ccc4oc(C5N(C)CC(=O)N5c5ccc(Cl)cc5)cc4c3)ccc2o1` (stereo not drawn) [2i, (2″R,2‴R)-, (2″S,2‴S)-, and meso-(2″R,2‴S)-5,5′-Methylenebis(2-[N-methyl-3″-(4-chlorophenyl)-4″-oxo-1″,3″-imidazolidin-2″-yl]benzofuran)] the SI [2] was 0.85, the EC50 [2] was 14.4 µM and the CC50 (in vitro) was 12.3 µM.
With `CN1CC(=O)N(c2ccc(Br)cc2)C1c1cc2cc(Cc3ccc4oc(C5N(C)CC(=O)N5c5ccc(Br)cc5)cc4c3)ccc2o1` (stereo not drawn) [2j, (2″R,2‴R)-, (2″S,2‴S)-, and meso-(2″R,2‴S)-5,5′-Methylenebis(2-[N-methyl-3″-(4-bromophenyl)-4″-oxo-1″,3″-imidazolidin-2″-yl]benzofuran)] the EC50 [2] was > 133 µM.
`CN1CC(=O)N(c2cccc(C(F)(F)F)c2)C1c1cc2cc(Cc3ccc4oc(C5N(C)CC(=O)N5c5cccc(C(F)(F)F)c5)cc4c3)ccc2o1` (stereo not drawn) [2k, (2″R,2‴R)-, (2″S,2‴S)-, and meso-(2″R,2‴S)-5,5′-Methylenebis(2-[N-methyl-3″-(3-trifluoromethyl)phenyl-4″-oxo-1″,3″-imidazolidin-2″-yl]benzofuran)] gave an EC50 [2] of 8.89 µM, a CC50 (in vitro) of 75 µM and a logP (physchem) of 5.16.
With `c1ccc(Cn2c(-c3cc4cc(Cc5ccc6oc(-c7nc8ccccc8n7Cc7ccccc7)cc6c5)ccc4o3)nc3ccccc32)cc1` [3a, 5,5′-Methylenebis[2-(1-benzylbenzimidazol-2-yl)benzofuran]] the EC50 [2] was > 114 µM.
In the case of `Cc1ccc(Cn2c(-c3cc4cc(Cc5ccc6oc(-c7nc8ccccc8n7Cc7ccc(C)cc7)cc6c5)ccc4o3)nc3ccccc32)cc1` [3b, 5,5′-Methylenebis(2-[1-(p-methylbenzyl)benzimidazol-2-yl]benzofuran)], the EC50 [2] is reported as > 145 µM.
With `COc1cccc(Cn2c(-c3cc4cc(Cc5ccc6oc(-c7nc8ccccc8n7Cc7cccc(OC)c7)cc6c5)ccc4o3)nc3ccccc32)c1` [3c, 5,5′-Methylenebis(2-[1-(m-methoxybenzyl)benzimidazol-2-yl]benzofuran)] the EC50 [2] was > 139 µM.
For `COc1ccc(Cn2c(-c3cc4cc(Cc5ccc6oc(-c7nc8ccccc8n7Cc7ccc(OC)cc7)cc6c5)ccc4o3)nc3ccccc32)cc1` [3d, 5,5′-Methylenebis(2-[1-(p-methoxybenzyl)benzimidazol-2-yl]benzofuran)], the EC50 [2] was 27.7 µM.
For `Fc1ccccc1Cn1c(-c2cc3cc(Cc4ccc5oc(-c6nc7ccccc7n6Cc6ccccc6F)cc5c4)ccc3o2)nc2ccccc21` [3e, 5,5′-Methylenebis(2-[1-(o-fluorobenzyl)benzimidazol-2-yl]benzofuran)], the EC50 [2] was > 21.5 µM and the logP (physchem) was 4.65.
In the case of `Fc1ccc(Cn2c(-c3cc4cc(Cc5ccc6oc(-c7nc8ccccc8n7Cc7ccc(F)cc7)cc6c5)ccc4o3)nc3ccccc32)cc1` [3f, 5,5′-Methylenebis(2-[1-(p-fluorobenzyl)benzimidazol-2-yl]benzofuran)], the EC50 [2] is reported as 28.7 µM.
In the case of `Clc1ccccc1Cn1c(-c2cc3cc(Cc4ccc5oc(-c6nc7ccccc7n6Cc6ccccc6Cl)cc5c4)ccc3o2)nc2ccccc21` [3g, 5,5′-Methylenebis(2-[1-(o-chlorobenzyl)benzimidazol-2-yl]benzofuran)], the EC50 [2] is reported as > 137 µM.
With `Clc1ccc(Cn2c(-c3cc4cc(Cc5ccc6oc(-c7nc8ccccc8n7Cc7ccc(Cl)cc7)cc6c5)ccc4o3)nc3ccccc32)cc1` [3h, 5,5′-Methylenebis(2-[1-(p-chlorobenzyl)benzimidazol-2-yl]benzofuran)] the EC50 [2] was > 103 µM.
Compound `Brc1cccc(Cn2c(-c3cc4cc(Cc5ccc6oc(-c7nc8ccccc8n7Cc7cccc(Br)c7)cc6c5)ccc4o3)nc3ccccc32)c1` [3i, 5,5′-Methylenebis(2-[1-(m-bromobenzyl)benzimidazol-2-yl]benzofuran)] has an EC50 [2] of 91.6 µM.
Work on `CC(C)n1c(-c2cc3cc(Cc4ccc5oc(-c6nc7ccccc7n6C(C)C)cc5c4)ccc3o2)nc2ccccc21` [3j, 5,5′-Methylenebis[2-(1-isopropylbenzimidazol-2-yl)benzofuran]] yielded an EC50 [2] of 6.14 µM, a CC50 (in vitro) of 69.3 µM and a logP (physchem) of 3.71.
With `c1ccc2c(c1)nc(-c1cc3cc(Cc4ccc5oc(-c6nc7ccccc7n6C6CCCC6)cc5c4)ccc3o1)n2C1CCCC1` [3k, 5,5′-Methylenebis[2-(1-cyclopentylbenzimidazol-2-yl)benzofuran]] the EC50 [2] was > 162 µM.
For `c1ccc2c(c1)nc(-c1cc3cc(Cc4ccc5oc(-c6nc7ccccc7n6C6CCCCC6)cc5c4)ccc3o1)n2C1CCCCC1` [3l, 5,5′-Methylenebis[2-(1-cyclohexylbenzimidazol-2-yl)benzofuran]], the EC50 [2] was > 28.7 µM.
For `NC(=O)c1ncn([C@@H]2O[C@H](CO)[C@@H](O)[C@H]2O)n1` [Ribavirin], the survival (yellow fever) is given as “lack of improved survival”.
With `O=Cc1cc2cc(Cc3ccc4oc(C=O)cc4c3)ccc2o1` [compound 7] the “activity towards YFV” value [2] was “did not exhibit any activity”, the EC50 [2] was > 329 µM and the logP (physchem) was 3.75.
In the case of `CCOC(=O)c1cc2cc(Cc3ccc4oc(C(=O)OCC)cc4c3)ccc2o1` [compound 10], the “activity towards YFV” value [2] is reported as “did not exhibit any activity” and the EC50 [2] is reported as > 255 µM.
For `O=C(O)c1cc2cc(Cc3ccc4oc(C(=O)O)cc4c3)ccc2o1` [compound 11], the “activity towards YFV” value [2] was “did not exhibit any activity” and the EC50 [2] was > 297 µM.
